Measurements reported in ChEMBL document CHEMBL1127218, “Synthesis, anti-human immunodeficiency virus, and anti-hepatitis B virus activity of pyrimidine oxathiolane nucleosides” (Bioorg Med Chem Lett, 1993).

Experiments:
HepG2 [1] = test: Percent inhibition for its anti-HBV activity in infected HepG2(2.2.15) cells at concentration of 25 uM; assay type: functional; settings: Homo sapiens
MT4 = test: Compound was tested for its anti-HIV activity in acutely infected MT-4 cells; assay type: functional, cell-based; settings: Homo sapiens
[2] = Compound was tested for its cytotoxic activity in uninfected human peripheral blood mononuclear (PBM) cells; assay type: functional
[3] = Compound was tested for its anti-HIV activity against HIV-1 LAI in human peripheral blood mononuclear (PBM) cells; assay type: functional
Vero = test: Compound was tested for its cytotoxic activity in uninfected Vero cells; assay type: functional, cell-based; settings: Chlorocebus sabaeus
HepG2 [4] = test: Percent inhibition for its anti-HBV activity in infected HepG2(2.2.15) cells at concentration of 1 uM; assay type: functional; settings: Homo sapiens

Row | Compound | inhibition at 25 µM (HepG2 [1]) [%] | EC50 (MT4) [µM] | IC50 [2] [µM] | EC50 [3] [µM] | IC50 (Vero) [µM] | inhibition at 1 µM (HepG2 [4]) [%]
1 | Cc1cn([C@H]2CS[C@@H](CO)O2)c(=O)nc1N | 0 | > 200 | > 100 | > 100 | > 100 | –
2 | O=c1[nH]c(=O)n([C@H]2CS[C@@H](CO)O2)cc1Br | 11 | > 200 | > 100 | > 100 | > 100 | –
3 | Nc1nc(=O)n([C@H]2CS[C@@H](CO)O2)cc1I | 55 | > 200 | > 100 | 0.72 | > 100 | –
4 | O=c1ccn([C@H]2CS[C@@H](CO)O2)c(=O)[nH]1 | 0 | > 200 | > 100 | > 100 | > 100 | –
5 | O=c1[nH]c(=O)n([C@H]2CS[C@@H](CO)O2)cc1I | 0 | > 200 | > 100 | > 100 | > 100 | –
6 | O=c1[nH]c(=O)n([C@H]2CS[C@@H](CO)O2)cc1F | 75 | > 200 | > 100 | > 100 | > 100 | –
7 | Nc1nc(=O)n([C@H]2CS[C@@H](CO)O2)cc1Br | 84 | > 200 | > 100 | 2.4 | > 100 | –
8 | Cc1cn([C@H]2CS[C@@H](CO)O2)c(=O)[nH]c1=O | 0 | > 200 | > 100 | 64.4 | > 100 | –
9 | Nc1nc(=O)n([C@H]2CS[C@@H](CO)O2)cc1F | – | 2.1 | > 100 | 0.01 | > 100 | 90
10 | Nc1nc(=O)n([C@H]2CS[C@@H](CO)O2)cc1Cl | 58 | > 200 | > 100 | 38.7 | > 100 | –
11 | O=c1[nH]c(=O)n([C@H]2CS[C@@H](CO)O2)cc1Cl | 59 | > 200 | > 100 | 60.8 | > 100 | –
12 | Nc1ccn([C@@H]2CS[C@H](CO)O2)c(=O)n1 [LAMIVUDINE] | – | 7 | > 100 | 0.06 | > 100 | 87
